≈ marks a conversion by molar mass, not a printed value. Read-outs that look alike come from different tables or passages of the source.
What was measured:
[1] = test system: Campylobacter jejuni; experiment: MIC by agar dilution (NCCLS M7-A4), 5% sheep blood, microaerophilic 48 h; format: cell-based; conditions: Campylobacter jejuni (n=91)
[2] = test system: Proteus mirabilis; experiment: MIC by agar dilution (NCCLS), 322 nosocomial Gram negative isolates, Athens 1998; format: cell-based; conditions: Proteus mirabilis; n = 57 isolates
[3] = test system: Proteus vulgaris; experiment: MIC by NCCLS broth microdilution, 1100 Japanese clinical isolates 1997-1998; format: cell-based
[4] = MIC by agar dilution, Brucella HK agar, 491 anaerobic clinical isolates; format: cell-based; conditions: clinical isolates of Bacteroides spp., Prevotella bivia and other Prevotella spp.
[5] = test system: Morganella morganii; experiment: MIC by NCCLS broth microdilution, 1100 Japanese clinical isolates 1997-1998; format: cell-based; conditions: Morganella morganii (n=40)
[6] = test system: Enterococcus faecalis; experiment: as above; format: cell-based; conditions: for MIC50 / MIC90: Enterococcus faecalis; for MIC90: read-out: MIC90
[7] = test system: Salmonella spp.; experiment: MIC by agar dilution (NCCLS M7-A4), 288 enteropathogenic isolates, eight quinolones; format: cell-based; conditions: for MIC: ciprofloxacin MIC ≥[…], read-out: MIC
[8] = test system: Klebsiella pneumoniae; experiment: MIC by agar dilution (NCCLS), 322 nosocomial Gram negative isolates, Athens 1998; format: cell-based; conditions: n = 56 isolates
[9] = test system: Gram positive anaerobic and facultative anaerobic pathogens; experiment: microbe, parasite or virus in culture; format: cell-based
[10] = test system: Streptococcus pneumoniae and Haemophilus influenzae; experiment: MIC by broth microdilution (NCCLS), all isolates pooled; format: cell-based
[11] = test system: Acinetobacter spp.; experiment: MIC by agar dilution (NCCLS), 322 nosocomial Gram negative isolates, Athens 1998; format: cell-based; conditions: n = 38 strains
[12] = test system: Streptococcus pyogenes; experiment: MIC by agar dilution (NCCLS), 411 isolates Buenos Aires 1998-99; format: cell-based
[13] = test system: Streptococcus pneumoniae; experiment: as above; format: cell-based; conditions: for MIC90 / MIC: Streptococcus pneumoniae; for MIC: Ciprofloxacin-resistant S. pneumoniae, read-out: MIC
[14] = test system: Campylobacter jejuni; experiment: MIC by agar dilution (NCCLS M7-A4), 288 enteropathogenic isolates, gemifloxacin and 15 other antimicrobials; conditions: for MIC: Campylobacter jejuni
[15] = test system: Serratia marcescens; experiment: MIC by NCCLS broth microdilution, 1100 Japanese clinical isolates 1997-1998; format: cell-based; conditions: Serratia marcescens (n=30)
[16] = test system: Providencia rettgeri; experiment: as above; format: cell-based; conditions: Providencia rettgeri (n=12)
[17] = test system: Haemophilus influenzae; experiment: MIC by NCCLS reference broth microdilution, 450 respiratory tract pathogens; format: cell-based; conditions: Haemophilus influenzae; for MIC90: read-out: MIC90
[18] = test system: Escherichia coli; experiment: MIC by agar dilution (NCCLS), 322 nosocomial Gram negative isolates, Athens 1998; format: cell-based; conditions: n = 57 isolates
[19] = test system: Aeromonas spp.; experiment: MIC by agar dilution (NCCLS M7-A4), 288 enteropathogenic isolates, gemifloxacin and 15 other antimicrobials; format: cell-based; conditions: Aeromonas spp. N= 16
[20] = test system: Enterococcus faecalis; experiment: MIC by agar dilution (NCCLS), 411 isolates Buenos Aires 1998-99; format: cell-based; conditions: Enterococcus faecalis (n = 48)
[21] = test system: Shigella spp.; experiment: MIC by NCCLS broth microdilution, 1100 Japanese clinical isolates 1997-1998; format: cell-based; conditions: Shigella spp. (n=34)
[22] = test system: Pseudomonas aeruginosa; experiment: MIC by agar dilution (NCCLS), 322 nosocomial Gram negative isolates, Athens 1998; format: cell-based; conditions: n = 57 isolates
[23] = Enterococcus faecalis ciprofloxacin resistant (n=15)
[24] = Enterococcus faecalis ciprofloxacin susceptible (n=24)
[25] = Haemophilus influenzae (n = 100)

In the case of `N[C@@H]1[C@H]2CN(c3nc4c(cc3F)c(=O)c(C(=O)O)cn4-c3ccc(F)cc3F)C[C@@H]12` [Trovafloxacin, trovafloxacin], the “% Susceptible” value [1] is reported as 31.86%, the MIC50 [1] is reported as 8 µg/mL (≈ 19.2 µM) and the MIC90 [1] is reported as 8 µg/mL (≈ 19.2 µM). For the same compound, the “MIC Range” value [1] was at most 0.015 to 32 µg/mL, the MIC50 [2] was 0.25 µg/mL (≈ 0.6 µM) and the MIC90 [2] was 16 µg/mL (≈ 38.4 µM). For the same compound, the MIC50 ([3]; Proteus vulgaris) was 0.125 µg/mL (≈ 0.3 µM), the “MIC Range” value ([3]; Proteus vulgaris (n=25)) was 0.063 to 2 µg/mL and the MIC90 ([3]; Proteus vulgaris (n=25), read-out: MIC90) was 1 µg/mL (≈ 2.4 µM). For the same compound, the MIC90 [4] was 1 to 8 µg/mL (≈ 2.4 to 19.2 µM), the “MIC Range” value [5] was 0.063 to 32 µg/mL and the MIC50 ([5]; read-out: MIC50) was 0.25 µg/mL (≈ 0.6 µM). The MIC90 ([5]; read-out: MIC90) was 1 µg/mL (≈ 2.4 µM), the “MIC Range” value [6, 23] was 0.25 to 16 µg/mL and the “MIC Range” value [6, 24] was 0.25 to 0.5 µg/mL. It also gave an MIC50 [6, 23] of 4 µg/mL (≈ 9.61 µM), an MIC90 [6, 23] of 16 µg/mL (≈ 38.4 µM) and an MIC50 [6, 24] of 0.25 µg/mL (≈ 0.6 µM). For the same compound, the MIC90 [6, 24] was 0.25 µg/mL (≈ 0.6 µM), the MIC ([7]; S. hadar (n = 2)) was 0.5 µg/mL (≈ 1.2 µM) and the MIC ([7]; S. newport (n = 1)) was 0.5 µg/mL (≈ 1.2 µM). For the same compound, the MIC ([7]; S. virchow (n = 2)) was 0.25 µg/mL (≈ 0.6 µM), the “% Susceptible” value ([7]; Salmonella spp. (n = 106)) was 100% and the MIC50 ([7]; Salmonella spp. (n = 106)) was 0.06 µg/mL (≈ 0.144 µM). The MIC90 ([7]; Salmonella spp. (n = 106)) was 0.25 µg/mL (≈ 0.6 µM), the “MIC Range” value ([7]; Salmonella spp. (n = 106)) was at most 0.015 to 1 µg/mL and the MIC ([7]; Salmonella, S. tshiongwe (n = 1)) was 1 µg/mL (≈ 2.4 µM). For the same compound, the MIC50 ([8]; Klebsiella pneumoniae) was 0.125 µg/mL (≈ 0.3 µM), the MIC90 ([8]; Klebsiella pneumoniae) was 1 µg/mL (≈ 2.4 µM) and the “MIC Range” value [8] was at most 0.03 to 16 µg/mL. For the same compound, the MIC ([9]; Bifidobacterium adolescentis, ATCC15703) was 1 µg/mL (≈ 2.4 µM), the MIC ([9]; Bifidobacterium bifidum, JCM1255) was 4 µg/mL (≈ 9.61 µM) and the MIC ([9]; Bifidobacterium breve, ATCC15700) was 4 µg/mL (≈ 9.61 µM). For the same compound, the MIC ([9]; Bifidobacterium longum, ATCC15707) was 4 µg/mL (≈ 9.61 µM), the MIC ([9]; Bifidobacterium pseudolongum, ATCC25526) was 4 µg/mL (≈ 9.61 µM) and the MIC ([9]; Clostridioides difficile) was 1 µg/mL (≈ 2.4 µM). For the same compound, the MIC ([9]; Clostridium perfringens, ATCC13124) was 0.125 µg/mL (≈ 0.3 µM), the MIC ([9]; Clostridium septicum, ATCC12464) was 0.125 µg/mL (≈ 0.3 µM) and the MIC ([9]; Cutibacterium acnes, ATCC11828) was 1 µg/mL (≈ 2.4 µM). For the same compound, the MIC ([9]; Eggerthella lenta, ATCC25559) was 0.5 µg/mL (≈ 1.2 µM), the MIC ([9]; Finegoldia magna, ATCC29328) was 0.125 µg/mL (≈ 0.3 µM) and the MIC ([9]; Gemella morbillorum, ATCC27824) was 0.25 µg/mL (≈ 0.6 µM). It also gave an MIC ([9]; Lacticaseibacillus casei, JCM1134) of 0.06 µg/mL (≈ 0.144 µM), an MIC ([9]; Lactiplantibacillus plantarum, JCM1149) of 4 µg/mL (≈ 9.61 µM) and an MIC ([9]; Lactobacillus acidophilus, JCM1132) of 4 µg/mL (≈ 9.61 µM). For the same compound, the MIC ([9]; Levilactobacillus brevis, JCM1059) was 1 µg/mL (≈ 2.4 µM), the MIC ([9]; Ligilactobacillus salivarius, JCM1231) was 0.125 µg/mL (≈ 0.3 µM) and the MIC ([9]; Limosilactobacillus reuteri, JCM1112) was 1 µg/mL (≈ 2.4 µM). For the same compound, the MIC ([9]; Limosilactobacillus reuteri, JCM1173) was 1 µg/mL (≈ 2.4 µM), the MIC ([9]; Paraclostridium sordellii, ATCC9714) was 0.25 µg/mL (≈ 0.6 µM) and the MIC ([9]; Parvimonas micra) was 0.06 µg/mL (≈ 0.144 µM). It also gave an MIC ([9]; Peptoniphilus asaccharolyticus) of 0.5 µg/mL (≈ 1.2 µM), an MIC ([9]; Peptoniphilus indolicus) of 0.125 µg/mL (≈ 0.3 µM) and an MIC ([9]; Peptostreptococcus anaerobius, ATCC27337) of 0.06 µg/mL (≈ 0.144 µM). It also gave an MIC ([9]; Schaalia odontolytica) of 4 µg/mL (≈ 9.61 µM), an MIC ([9]; Staphylococcus saccharolyticus, ATCC14953) of 0.06 µg/mL (≈ 0.144 µM) and an MIC ([9]; Streptococcus constellatus, ATCC27823) of 0.125 µg/mL (≈ 0.3 µM). It also gave an MIC ([9]; Streptococcus intermedius, ATCC27335) of 0.125 µg/mL (≈ 0.3 µM), an MIC ([9]; Thomasclavelia ramosa, ATCC25582) of 0.5 µg/mL (≈ 1.2 µM) and an MIC90 ([10]; all (380) isolates tested (235 S. pneumoniae, 145 H. influenzae)) of 0.12 µg/mL (≈ 0.288 µM). It also gave an MIC90 ([10]; all isolates tested (602)) of 0.25 µg/mL (≈ 0.6 µM), an MIC50 ([11]; Acinetobacter) of 2 µg/mL (≈ 4.8 µM) and an MIC90 ([11]; Acinetobacter) of 16 µg/mL (≈ 38.4 µM). The “MIC Range” value [11] was at most 0.03 to 32 µg/mL, the MIC90 ([12]; Streptococcus pyogenes) was 0.125 µg/mL (≈ 0.3 µM) and the “MIC Range” value ([12]; Streptococcus pyogenes (n = 69)) was 0.06 to 1 µg/mL. The MIC90 [13] was 0.125 µg/mL (≈ 0.3 µM), the “MIC Range” value ([13]; Streptococcus pneumoniae (n = 90)) was 0.016 to 1 µg/mL and the MIC ([13]; Strain 1) was 0.25 µg/mL (≈ 0.6 µM). For the same compound, the MIC ([13]; Strain 2) was 0.025 µg/mL (≈ 0.06 µM), the MIC ([13]; Strain 3) was 1 µg/mL (≈ 2.4 µM) and the MIC ([13]; Strain 4) was 1 µg/mL (≈ 2.4 µM). It also gave an MIC90 ([13]; S. pneumoniae, Penicillin intermediate (n = 17), read-out: MIC90) of 0.25 µg/mL (≈ 0.6 µM), an MIC90 ([13]; S. pneumoniae, Penicillin susceptible (n = 69), read-out: MIC90) of 0.25 µg/mL (≈ 0.6 µM) and an MIC90 ([13]; Streptococcus pneumoniae (n = 90), read-out: MIC90) of 0.25 µg/mL (≈ 0.6 µM). For the same compound, the “MIC (mg/L) Range” value ([14]; Campylobacter jejuni N= 91) was at most 0.015 to 32 mg/L, the MIC ([14]; read-out: MIC (mg/L) 50%) was 8 mg/L (≈ 19.2 µM) and the MIC ([14]; read-out: MIC (mg/L) 90%) was 8 mg/L (≈ 19.2 µM). For the same compound, the MIC90 [15] was 2 µg/mL (≈ 4.8 µM), the MIC50 ([15]; read-out: MIC50) was 0.25 µg/mL (≈ 0.6 µM) and the MIC90 [16] was 8 µg/mL (≈ 19.2 µM). For the same compound, the “MIC Range” value [16] was 0.125 to 8 µg/mL, the MIC50 ([16]; read-out: MIC50) was 0.25 µg/mL (≈ 0.6 µM) and the MIC [17, 25] was 0.0075 to 0.25 µg/mL (≈ 0.018 to 0.6 µM). The MIC50 [17, 25] was at most 0.00075 µg/mL, the MIC90 [17, 25] was 0.06 µg/mL (≈ 0.144 µM) and the MIC ([17]; β-lactamase negative (n = 80)) was 0.0075 to 0.25 µg/mL (≈ 0.018 to 0.6 µM). For the same compound, the MIC50 ([17]; β-lactamase negative (n = 80)) was at most 0.0075 µg/mL, the MIC90 ([17]; β-lactamase negative (n = 80)) was 0.015 µg/mL (≈ 0.036 µM) and the MIC ([17]; β-lactamase positive (n = 20)) was 0.0075 to 0.06 µg/mL (≈ 0.018 to 0.144 µM). It also gave an MIC50 ([17]; β-lactamase positive (n = 20)) of at most 0.0075 µg/mL, an MIC90 ([17]; β-lactamase positive (n = 20)) of 0.06 µg/mL (≈ 0.144 µM) and an MIC50 ([18]; Escherichia coli) of 0.06 µg/mL (≈ 0.144 µM). For the same compound, the MIC90 ([18]; Escherichia coli) was 0.25 µg/mL (≈ 0.6 µM), the “MIC Range” value [18] was at most 0.03 to 64 µg/mL and the “MIC (mg/L) Range” value [19] was at most 0.015 to 0.25 mg/L. The MIC ([19]; read-out: MIC (mg/L) 50%) was at most 0.015 mg/L, the MIC ([19]; read-out: MIC (mg/L) 90%) was 0.03 mg/L (≈ 0.0721 µM) and the MIC90 [20] was 8 µg/mL (≈ 19.2 µM). The “MIC Range” value [20] was at most 0.004 to 16 µg/mL, the MIC50 [21] was at most 0.008 µg/mL and the MIC90 [21] was 0.032 µg/mL (≈ 0.0769 µM). The “MIC Range” value [21] was at most 0.008 to 0.032 µg/mL, the MIC50 [22] was 2 µg/mL (≈ 4.8 µM) and the MIC90 [22] was over 64 µg/mL.
